Results reported in ChEMBL document CHEMBL1781881, “Adenosine-derived inhibitors of 78 kDa glucose regulated protein (Grp78) ATPase: insights into isoform selectivity” (J Med Chem, 2011).

Columns and labels:
[1] = Inhibition of HSP70 by fluorescence polarization assay
[2] = test system: HCT-116; experiment: Antiproliferative activity against human HCT116 cells; assay type: functional

| Compound | Ki [1] [µM] | GI50 [2] [µM] |
| --- | --- | --- |
| Nc1ncnc2c1nc(NCc1ccc(Cl)c(Cl)c1)n2[C@@H]1O[C@H](CO)[C@@H](O)[C@H]1O | 4.31 | 26 |
| CNc1nc2c(N)ncnc2n1[C@@H]1O[C@H](COCc2cccnc2)[C@@H](O)[C@H]1O | 0.45 |  |
| Nc1ncnc2c1nc(NCc1ccc3ncccc3c1)n2[C@@H]1O[C@H](CO)[C@@H](O)[C@H]1O | 1.29 | > 80 |
| Nc1ncnc2c1nc(NCc1ccc(Cl)c(Cl)c1)n2[C@@H]1O[C@H](COCc2ccccc2)[C@@H](O)[C@H]1O | 1.05 |  |
| N#Cc1ccc(COC[C@H]2O[C@@H](n3c(NCc4ccc(Cl)c(Cl)c4)nc4c(N)ncnc43)[C@H](O)[C@@H]2O)cc1 | 0.12 | 5 |
| Nc1ncnc2c1nc(N)n2[C@@H]1O[C@H](CO)[C@@H](O)[C@H]1O | 4.46 | 0.05 |

Results, then the compound that gave them:

| Ki [1] [µM] | GI50 [2] [µM] | Compound |
| --- | --- | --- |
| 1.1 |  | CNc1nc2c(N)ncnc2n1[C@@H]1O[C@H](COCc2ccccc2)[C@@H](O)[C@H]1O |
| 4.07 |  | CNc1nc2c(N)ncnc2n1[C@@H]1O[C@H](COCC2CCCCC2)[C@@H](O)[C@H]1O |
| 1.44 |  | COC[C@H]1O[C@@H](n2c(NCc3ccc(Cl)c(Cl)c3)nc3c(N)ncnc32)[C@H](O)[C@@H]1O |
| 0.31 | > 80 | N#Cc1ccc(COC[C@H]2O[C@@H](n3c(NCc4ccc5ncccc5c4)nc4c(N)ncnc43)[C@H](O)[C@@H]2O)cc1 |
| 8.3 |  | CNc1nc2c(N)ncnc2n1[C@@H]1O[C@H](CO)[C@@H](O)[C@H]1O |
| 0.11 |  | Nc1ncnc2c1ncn2[C@@H]1O[C@H](COP(=O)(O)OP(=O)(O)O)[C@@H](O)[C@H]1O [ADENOSINE DIPHOSPHATE] |
| 4.32 |  | Nc1ncnc2c1nc(NCc1ccc3ccccc3n1)n2[C@@H]1O[C@H](CO)[C@@H](O)[C@H]1O |
